According to patent US20250320213A1, “Nitrogen-Containing Heterocyclic Compounds” (Pfizer Inc., priority 2024, published 2025):

Tests used:
[1] = tested on: CCL17 secretion in peripheral human whole blood; test: Human Whole Blood (HWB) CCL17 TR-FRET Assay (IL-13 stimulated CCL17 secretion); assay type: cell-based; details: Homo sapiens, 48 h, human whole blood, 10 ng/mL IL13, 48 hours
Method in brief: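 IC50 comes from serum CCL17 measured by a TR-FRET sandwich assay (16 h at room temperature, 665/615 nm ratio). Beforehand, blood in sodium heparin was exposed to an 11-point, 3-fold compound series for 2 h at 37°C and then to 10 ng/mL IL-13 for 48 h.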

STAT6 = molecular target: T1, STAT6 (Homo sapiens, UniProt P42226); test: STAT6 Reporter Luciferase Assay (IL-13 stimulated HaCaT keratinocyte NanoLuc reporter cells); assay type: cell-based; details: IL-13 stimulated HaCaT STAT6 NanoLuc reporter cells; read-out: Reporter EC50
T1 construct: stably transfected HaCaT keratinocyte cell line, which expresses NanoLuc luciferase reporter gene under the transcriptional control of the STAT6 responsive promoter; endogenous in cells; host or cells: HaCaT keratinocyte reporter cell line (stably transfected with a NanoLuc reporter)
T1 sequence (P42226 1-847): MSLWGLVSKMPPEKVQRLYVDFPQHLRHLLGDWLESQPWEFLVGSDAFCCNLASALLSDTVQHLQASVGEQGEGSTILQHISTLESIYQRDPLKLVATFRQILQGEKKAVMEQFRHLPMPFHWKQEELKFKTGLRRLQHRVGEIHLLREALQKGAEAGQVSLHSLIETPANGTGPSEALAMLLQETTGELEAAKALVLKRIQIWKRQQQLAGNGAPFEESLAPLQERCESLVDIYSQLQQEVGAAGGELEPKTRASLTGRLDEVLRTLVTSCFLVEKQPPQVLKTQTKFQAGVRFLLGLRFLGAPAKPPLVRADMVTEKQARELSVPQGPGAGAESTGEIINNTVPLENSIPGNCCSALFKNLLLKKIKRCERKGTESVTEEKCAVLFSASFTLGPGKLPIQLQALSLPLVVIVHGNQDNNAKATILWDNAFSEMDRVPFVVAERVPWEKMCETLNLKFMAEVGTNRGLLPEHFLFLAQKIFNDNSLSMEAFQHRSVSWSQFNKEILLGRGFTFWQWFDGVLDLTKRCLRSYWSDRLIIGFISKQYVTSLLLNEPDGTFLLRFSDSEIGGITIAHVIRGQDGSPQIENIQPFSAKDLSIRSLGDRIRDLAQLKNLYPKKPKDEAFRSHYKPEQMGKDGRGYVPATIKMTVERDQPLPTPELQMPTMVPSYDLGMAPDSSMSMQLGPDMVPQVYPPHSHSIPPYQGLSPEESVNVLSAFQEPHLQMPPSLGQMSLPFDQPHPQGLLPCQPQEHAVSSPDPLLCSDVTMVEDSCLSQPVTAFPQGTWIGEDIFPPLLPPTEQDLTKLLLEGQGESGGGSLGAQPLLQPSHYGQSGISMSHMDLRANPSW
Method in brief: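 Cells were plated overnight, washed, exposed to compound for two hours, stimulated with IL-13 (0.12 nM final) for four hours at 37 °C, and then lysed with Nano-Glo substrate for 15 min before luminescence reading.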

Row | IC50 [1] [nM] | EC50 (STAT6) [nM] | SMILES
1 | 83 | 64 | CC(C)n1nc(C(=O)NCc2ccc(NC(=O)N3CC4(CNC4)C3)c(F)c2)c2c1[C@@H](C)CN(c1ccc(C(=O)N(C)C)cc1)C2 [Example 595, (S)-5-(4-(dimethylcarbamoyl)phenyl)-N-(3-fluoro-4-(2,6-diazaspiro[3.3]heptane-2-carboxamido)benzyl)-1-isopropyl-7-methyl-4,5,6,7-tetrahydro-1H-pyrazolo[4,3-c]pyridine-3-carboxamide]
2 | 45 | 3 | CC(C)n1nc(C(=O)NCc2ccc(NC(=O)N3CCNCC3)c(Cl)c2)c2c1[C@@H](C)CN(c1ccc(C(=O)N(C)C)cc1)C2 [Example 596, (S)-N-(3-chloro-4-(piperazine-1-carboxamido)benzyl)-5-(4-(dimethylcarbamoyl)phenyl)-1-isopropyl-7-methyl-4,5,6,7-tetrahydro-1H-pyrazolo[4,3-c]pyridine-3-carboxamide]
3 | 28 | 4 | CNC1CN(C(=O)Nc2ccc(CNC(=O)c3nn(C(C)C)c4c3CN(c3ccc(C(=O)N(C)C)cc3)C[C@@H]4C)cc2F)C1 [Example 597, (S)-5-(4-(dimethylcarbamoyl)phenyl)-N-(3-fluoro-4-(3-(methylamino)azetidine-1-carboxamido)benzyl)-1-isopropyl-7-methyl-4,5,6,7-tetrahydro-1H-pyrazolo[4,3-c]pyridine-3-carboxamide]
4 | 13 | 1 | CC(C)n1nc(C(=O)NCc2ccc(NC(=O)N(C)CC(F)F)cc2)c2c1[C@@H](C)CN(c1ccc(C(=O)N(C)C)cn1)C2 [Example 598, (S)-N-(4-(3-(2,2-difluoroethyl)-3-methylureido)benzyl)-5-(5-(dimethylcarbamoyl)pyridin-2-yl)-1-isopropyl-7-methyl-4,5,6,7-tetrahydro-1H-pyrazolo[4,3-c]pyridine-3-carboxamide]
5 | 12 | 1 | CC(C)n1nc(C(=O)NCc2ccc(NC(=O)N3CC(F)(F)C3)cc2)c2c1[C@@H](C)CN(c1ccc(C(=O)N(C)C)cn1)C2 [Example 599, (S)-N-(4-(3,3-difluoroazetidine-1-carboxamido)benzyl)-5-(5-(dimethylcarbamoyl)pyridin-2-yl)-1-isopropyl-7-methyl-4,5,6,7-tetrahydro-1H-pyrazolo[4,3-c]pyridine-3-carboxamide]
6 | 2100 | 312 | CC(C)n1nc(C(=O)NCc2ccc(C(=O)NC3CCN(C)CC3)cc2)c2c1[C@@H](C)CN(c1ccc(C(=O)N(C)C)cn1)C2 [Example 601, (S)-5-(5-(dimethylcarbamoyl)pyridin-2-yl)-1-isopropyl-7-methyl-N-(4-((1-methylpiperidin-4-yl)carbamoyl)benzyl)-4,5,6,7-tetrahydro-1H-pyrazolo[4,3-c]pyridine-3-carboxamide]
7 | 14 | 1 | CC(C)n1nc(C(=O)NCc2ccc(NC(=O)N3CCC4(CC3)CCN4C)c(F)c2)c2c1[C@@H](C)CN(c1ccc(C(=O)N(C)C)cn1)C2 [Example 602, (S)-5-(5-(dimethylcarbamoyl)pyridin-2-yl)-N-(3-fluoro-4-(1-methyl-1,7-diazaspiro[3.5]nonane-7-carboxamido)benzyl)-1-isopropyl-7-methyl-4,5,6,7-tetrahydro-1H-pyrazolo[4,3-c]pyridine-3-carboxamide]
8 | 31 | 3 | CC(C)n1nc(C(=O)NCc2ccc(NC(=O)N3CC4(CCN(C)C4)C3)c(F)c2)c2c1[C@@H](C)CN(c1ccc(C(=O)N(C)C)cn1)C2 [Example 603, (S)-5-(5-(dimethylcarbamoyl)pyridin-2-yl)-N-(3-fluoro-4-(6-methyl-2,6-diazaspiro[3.4]octane-2-carboxamido)benzyl)-1-isopropyl-7-methyl-4,5,6,7-tetrahydro-1H-pyrazolo[4,3-c]pyridine-3-carboxamide]
9 | 29 | 4 | CC(C)n1nc(C(=O)NCc2ccc(NC(=O)N3CC4(CN(C)C4)C3)c(F)c2)c2c1[C@@H](C)CN(c1ccc(C(=O)N(C)C)cn1)C2 [Example 604, (S)-5-(5-(dimethylcarbamoyl)pyridin-2-yl)-N-(3-fluoro-4-(6-methyl-2,6-diazaspiro[3.3]heptane-2-carboxamido)benzyl)-1-isopropyl-7-methyl-4,5,6,7-tetrahydro-1H-pyrazolo[4,3-c]pyridine-3-carboxamide]
10 | 37 | 4 | CNC(=O)c1ccc(CNC(=O)c2nn(C(C)C)c3c2CN(c2ccc(C(=O)N(C)C)cc2)C[C@@H]3C)cc1 [Example 605, (S)-5-(4-(dimethylcarbamoyl)phenyl)-1-isopropyl-7-methyl-N-(4-(methylcarbamoyl)benzyl)-4,5,6,7-tetrahydro-1H-pyrazolo[4,3-c]pyridine-3-carboxamide]
11 | 9 | 1 | CC(C)n1nc(C(=O)NCc2ccc(NC(=O)N3CCN(C)CC3)c(F)c2)c2c1[C@@H](C)CN(c1ccc(C(=O)N(C)C)cn1)C2 [Example 606, (S)-5-(5-(dimethylcarbamoyl)pyridin-2-yl)-N-(3-fluoro-4-(4-methylpiperazine-1-carboxamido)benzyl)-1-isopropyl-7-methyl-4,5,6,7-tetrahydro-1H-pyrazolo[4,3-c]pyridine-3-carboxamide]
12 | 21 | 2 | CC(C)n1nc(C(=O)NCc2ccc(NC(=O)N3CCCN(C)CC3)c(F)c2)c2c1[C@@H](C)CN(c1ccc(C(=O)N(C)C)cn1)C2 [Example 607, (S)-5-(5-(dimethylcarbamoyl)pyridin-2-yl)-N-(3-fluoro-4-(4-methyl-1,4-diazepane-1-carboxamido)benzyl)-1-isopropyl-7-methyl-4,5,6,7-tetrahydro-1H-pyrazolo[4,3-c]pyridine-3-carboxamide]
13 | 16 | 1 | CC(C)n1nc(C(=O)NCc2ccc(NC(=O)N3CC4(CCN(C)CC4)C3)c(F)c2)c2c1[C@@H](C)CN(c1ccc(C(=O)N(C)C)cn1)C2 [Example 608, (S)-5-(5-(dimethylcarbamoyl)pyridin-2-yl)-N-(3-fluoro-4-(7-methyl-2,7-diazaspiro[3.5]nonane-2-carboxamido)benzyl)-1-isopropyl-7-methyl-4,5,6,7-tetrahydro-1H-pyrazolo[4,3-c]pyridine-3-carboxamide]
14 | 7 | 1 | CC(C)n1nc(C(=O)NCc2ccc(NC(=O)N3CCN(C)CC3)cc2)c2c1[C@@H](C)CN(c1ccc(-n3ccccc3=O)cn1)C2 [Example 609, (S)-1-isopropyl-7-methyl-N-(4-(4-methylpiperazine-1-carboxamido)benzyl)-5-(2-oxo-2H-[1,3′-bipyridin]-6′-yl)-4,5,6,7-tetrahydro-1H-pyrazolo[4,3-c]pyridine-3-carboxamide]
15 | 17 | 2 | CC(C)n1nc(C(=O)NCc2ccc(NC(=O)N3CCN(C)CC3)c(F)c2)c2c1[C@@H](C)CN(c1ccc(-n3ccccc3=O)cn1)C2 [Example 610, (S)-N-(3-fluoro-4-(4-methylpiperazine-1-carboxamido)benzyl)-1-isopropyl-7-methyl-5-(2-oxo-2H-[1,3′-bipyridin]-6′-yl)-4,5,6,7-tetrahydro-1H-pyrazolo[4,3-c]pyridine-3-carboxamide]
16 | 5 | 0.2 | CC(C)n1nc(C(=O)NCc2ccc(NC(=O)N3CCN(C)CC3)cc2)c2c1[C@@H](C)CN(c1ccc(C(=O)N3Cc4cccnc4C3)cn1)C2 [Example 611, (S)-5-(5-(6,7-dihydro-5H-pyrrolo[3,4-b]pyridine-6-carbonyl)pyridin-2-yl)-1-isopropyl-7-methyl-N-(4-(4-methylpiperazine-1-carboxamido)benzyl)-4,5,6,7-tetrahydro-1H-pyrazolo[4,3-c]pyridine-3-carboxamide]
17 | 10 | 0.5 | CC(C)n1nc(C(=O)NCc2ccc(NC(=O)N3CCN(C)CC3)c(F)c2)c2c1[C@@H](C)CN(c1ccc(C(=O)N3Cc4cccnc4C3)cn1)C2 [Example 612, (S)-5-(5-(6,7-dihydro-5H-pyrrolo[3,4-b]pyridine-6-carbonyl)pyridin-2-yl)-N-(3-fluoro-4-(4-methylpiperazine-1-carboxamido)benzyl)-1-isopropyl-7-methyl-4,5,6,7-tetrahydro-1H-pyrazolo[4,3-c]pyridine-3-carboxamide]
